Read-outs that look alike come from different tables or passages of the source.
Assays:
rats = assay: positive emotional learning (PEL) test, 50-kHz ultrasonic vocalizations; format: in vivo; details: rat, PO, one hour after administration
Method: Experiments were conducted as described in Burgdorf et al., “The effect of selective breeding for differential rates of 50-kHz ultrasonic vocalizations on emotional behavior in rats,” Devel. Psychobiol., 51:34-46 (2009). Rat 50-kHz ultrasonic vocalization (hedonic USVs) is a validated model for the study of positive affective state and is best elicited by rough-and-tumble play.
The PEL assay measures the acquisition of positive (hedonic) 50-kHz ultrasonic vocalizations (USVs) to a social stimulus, heterospecific rough and tumble play stimulation. Heterospecific rough-and-tumble play stimulation was administered by the experimenter's right hand. One hour after administration of test compound or vehicle negative control (0.5% sodium carboxymethyl cellulose in 0.9% sterile saline vehicle), animals received 3 min of heterospecific rough-and-tumble play that consisted of alternating 15 sec blocks of heterospecific play and 15 sec of no-stimulation. High frequency ultrasonic vocalizations (USVs) were recorded and analyzed by sonogram with Avasoft SASlab Pro (Germany) as previously described by Burgdorf et al., “Positive emotional learning is regulated in the medial prefrontal cortex by GluN2B-containing NMDA receptors,” Neuroscience, 192:515-523 (2011). Frequency modulated 50-kHz USVs that occurred during each of the no-stimulation periods were quantified to measure PEL. Animals were not habituated to play stimulation before testing. Positive emotional learning was measured during the conditioned stimulus (CS) trials preceding the tickle unconditioned stimulus (UCS) trials. Animals received 15 second trials consisting of 6 CS and 6 UCS trials each (3 min total).
The table below summarizes the findings. As each experiment includes its own vehicle group, an example (typical) vehicle score is shown. Max effect (mean number of 50 kHz USVs per 15 seconds) is reported as ^: <6.0; *: 6.0-7.6; **: 7.7-10; ***:10.1-20

NMDAR2A = molecular target: T1, NMDAR2A (Homo sapiens, UniProt Q12879); assay: [3H]MK-801 binding in NMDAR2A expressing HEK cell membranes; format: biochemical; details: 50 μM glutamate; for Emax: read-out: A: % maximal [3H]MK-801 binding relative to 1 mM glycine; for EC50: read-out: B: log EC50 (converted)
T1 construct: expressed in transfected cells; host or cells: HEK cells (membrane extract)
T1 sequence (Q12879 23-1464, species assumed, other chains not shown): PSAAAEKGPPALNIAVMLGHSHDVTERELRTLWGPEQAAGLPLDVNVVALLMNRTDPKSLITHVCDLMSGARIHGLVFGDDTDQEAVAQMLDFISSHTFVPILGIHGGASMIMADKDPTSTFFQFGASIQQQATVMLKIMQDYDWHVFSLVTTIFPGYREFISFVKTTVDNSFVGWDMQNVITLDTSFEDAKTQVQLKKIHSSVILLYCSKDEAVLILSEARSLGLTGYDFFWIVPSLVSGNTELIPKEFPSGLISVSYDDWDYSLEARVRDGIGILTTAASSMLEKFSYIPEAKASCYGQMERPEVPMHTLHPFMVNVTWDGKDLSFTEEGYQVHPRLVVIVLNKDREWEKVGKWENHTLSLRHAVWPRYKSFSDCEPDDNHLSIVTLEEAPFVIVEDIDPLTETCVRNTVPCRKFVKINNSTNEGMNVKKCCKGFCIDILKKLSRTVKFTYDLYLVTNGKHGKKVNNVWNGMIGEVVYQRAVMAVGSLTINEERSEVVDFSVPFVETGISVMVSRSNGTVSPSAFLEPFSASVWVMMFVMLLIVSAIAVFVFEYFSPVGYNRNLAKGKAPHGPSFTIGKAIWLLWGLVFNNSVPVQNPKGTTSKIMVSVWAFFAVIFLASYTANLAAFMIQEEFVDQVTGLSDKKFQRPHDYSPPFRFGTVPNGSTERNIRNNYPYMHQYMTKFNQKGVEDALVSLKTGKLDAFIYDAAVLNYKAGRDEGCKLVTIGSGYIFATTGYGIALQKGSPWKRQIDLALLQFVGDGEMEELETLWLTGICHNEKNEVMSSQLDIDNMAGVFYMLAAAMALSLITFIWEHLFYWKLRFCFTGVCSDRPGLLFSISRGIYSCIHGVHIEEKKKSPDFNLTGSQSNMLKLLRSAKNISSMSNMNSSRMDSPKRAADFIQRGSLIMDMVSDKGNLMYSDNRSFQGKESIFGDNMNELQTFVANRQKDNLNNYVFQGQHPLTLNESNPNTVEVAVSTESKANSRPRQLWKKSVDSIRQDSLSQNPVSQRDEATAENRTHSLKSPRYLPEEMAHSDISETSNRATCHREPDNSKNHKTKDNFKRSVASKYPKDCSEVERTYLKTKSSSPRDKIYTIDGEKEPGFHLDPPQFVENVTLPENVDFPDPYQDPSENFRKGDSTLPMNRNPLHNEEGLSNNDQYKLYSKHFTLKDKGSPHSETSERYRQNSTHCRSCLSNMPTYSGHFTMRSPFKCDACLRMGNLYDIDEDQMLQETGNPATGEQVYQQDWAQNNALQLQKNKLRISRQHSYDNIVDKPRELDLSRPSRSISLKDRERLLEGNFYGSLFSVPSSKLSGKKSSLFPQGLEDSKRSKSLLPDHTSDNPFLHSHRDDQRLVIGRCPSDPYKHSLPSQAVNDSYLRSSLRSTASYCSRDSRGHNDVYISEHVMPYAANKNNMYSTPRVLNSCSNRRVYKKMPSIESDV
Method: (§1) Assays were conducted as described by Moskal et al., “GLYX-13: a monoclonal antibody-derived peptide that acts as an N-methyl-D-aspartate receptor modulator,” Neuropharmacology, 49, 1077-87, 2005. These studies were designed to determine if the test compounds act to facilitate NMDAR activation in NMDAR2A, NMDAR2B, NMDAR2C or NMDAR2D expressing HEK cell membranes as measured by increases in [^3H]MK-801 binding.
(§2) In the assay, 300 μg of NMDAR expressing HEK cell membrane extract protein was preincubated for 15 minutes at 25° C. in the presence of saturating concentrations of glutamate (50 μM) and varying concentrations of test compound (1×10^−15M−1×10^−7M), or 1 mM glycine. Following the addition of 0.3 μCi of [^3H]MK-801 (22.5 Ci/mmol), reactions were again incubated for 15 minutes at 25° C. (nonequilibrium conditions). Bound and free [^3H]MK-801 were separated via rapid filtration using a Brandel apparatus.
(§3) In analyzing the data, the DPM (disintegrations per minute) of [^3H]MK-801 remaining on the filter were measured for each concentration of test compound or for 1 mM glycine. The DPM values for each concentration of a ligand (N=2) were averaged. The baseline value was determined from the best fit curve of the DPM values modeled using the GraphPad program and the log(agonist) vs. response (three parameters) algorithm was then subtracted from all points in the dataset. The % maximal [^3H]MK-801 binding was then calculated relative to that of 1 mM glycine: all baseline subtracted DPM values were divided by the average value for 1 mM glycine. The EC50 and % maximal activity were then obtained from the best fit curve of the % maximal [^3H]MK-801 binding data modelled using the GraphPad program and the log(agonist) vs. response (three parameters) algorithm.
(§4) The tables below summarize the results for the wild type […] NMDAR2A, NMDAR2B, NMDAR2C, and NMDAR2D, and whether the compound is not an agonist (−), is an agonist (+), or is a strong agonist (++), where column A is based on the % maximal [^3H]MK-801 binding relative to 1 mM glycine (−=0; <100%=+; and >100%=++); and column B is based on log EC50 values (0=−; ≥1×10^−9 M (e.g., −8)=+; and <1×10^−9 M (e.g., −10)=++).

NMDAR2B = molecular target: T2, NMDAR2B (Homo sapiens, UniProt Q13224); assay: [3H]MK-801 binding in NMDAR2B expressing HEK cell membranes; format: biochemical; parameters: key to B: log EC50: 0=−; ≥1×10^−9 M (e.g., −8)=+; <1×10^−9 M (e.g., −10)=++; details: 50 μM glutamate; for Emax: read-out: A: % maximal [3H]MK-801 binding relative to 1 mM glycine; for EC50: read-out: B: log EC50 (converted)
T2 construct: expressed in transfected cells; host or cells: HEK cells (membrane extract)
T2 sequence (Q13224 27-1484, species assumed, other chains not shown): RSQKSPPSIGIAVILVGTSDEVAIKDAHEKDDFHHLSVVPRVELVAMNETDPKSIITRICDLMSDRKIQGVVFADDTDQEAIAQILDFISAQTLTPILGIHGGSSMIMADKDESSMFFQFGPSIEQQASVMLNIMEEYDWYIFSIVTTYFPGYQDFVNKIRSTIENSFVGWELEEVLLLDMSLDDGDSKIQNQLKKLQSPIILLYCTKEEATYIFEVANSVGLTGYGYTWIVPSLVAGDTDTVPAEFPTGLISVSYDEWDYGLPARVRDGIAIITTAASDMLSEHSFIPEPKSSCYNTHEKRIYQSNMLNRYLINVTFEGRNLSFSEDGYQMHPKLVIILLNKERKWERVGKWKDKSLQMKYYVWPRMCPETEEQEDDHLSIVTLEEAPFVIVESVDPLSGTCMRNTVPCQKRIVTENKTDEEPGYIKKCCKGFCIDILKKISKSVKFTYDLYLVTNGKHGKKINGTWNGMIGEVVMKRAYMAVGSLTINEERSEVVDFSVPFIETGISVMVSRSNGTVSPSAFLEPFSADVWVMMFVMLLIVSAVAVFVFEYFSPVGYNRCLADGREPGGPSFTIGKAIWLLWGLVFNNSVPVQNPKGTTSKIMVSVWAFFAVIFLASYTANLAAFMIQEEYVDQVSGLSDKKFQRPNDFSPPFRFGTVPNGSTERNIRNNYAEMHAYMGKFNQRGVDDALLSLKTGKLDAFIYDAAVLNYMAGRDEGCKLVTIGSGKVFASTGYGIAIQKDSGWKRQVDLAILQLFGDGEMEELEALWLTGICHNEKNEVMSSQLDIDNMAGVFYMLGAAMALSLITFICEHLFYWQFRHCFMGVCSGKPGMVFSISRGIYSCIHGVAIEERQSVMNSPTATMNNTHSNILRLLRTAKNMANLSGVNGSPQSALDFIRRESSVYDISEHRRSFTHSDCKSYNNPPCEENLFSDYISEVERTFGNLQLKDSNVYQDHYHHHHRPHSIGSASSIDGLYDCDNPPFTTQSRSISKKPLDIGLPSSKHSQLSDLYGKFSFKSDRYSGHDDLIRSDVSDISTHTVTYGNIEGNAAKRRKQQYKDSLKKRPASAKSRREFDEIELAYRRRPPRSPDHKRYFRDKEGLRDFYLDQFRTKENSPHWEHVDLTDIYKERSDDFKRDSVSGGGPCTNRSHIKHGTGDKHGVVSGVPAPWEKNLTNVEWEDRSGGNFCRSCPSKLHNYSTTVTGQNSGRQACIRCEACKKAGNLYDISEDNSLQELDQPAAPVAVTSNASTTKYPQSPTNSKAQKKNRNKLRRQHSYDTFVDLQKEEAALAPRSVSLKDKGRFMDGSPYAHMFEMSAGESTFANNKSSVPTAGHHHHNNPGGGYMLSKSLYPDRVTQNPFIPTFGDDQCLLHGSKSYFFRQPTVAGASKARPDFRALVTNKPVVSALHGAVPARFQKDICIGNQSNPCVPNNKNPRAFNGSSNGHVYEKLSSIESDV
Method: as §1, §2, §3, §4

[1] = oral pharmacokinetics (plasma, brain, CSF); format: in vivo; details: Sprague Dawley rats, per os 10 mg/kg; for Tmax: normal saline (first four compounds: 5% NMP, 5% Solutol HS, 90% normal saline)
Method: Plasma, brain, and CSF samples were analyzed at various time points over a 24 hour period.

NMDAR2D = molecular target: T3, NMDAR2D (Homo sapiens, UniProt O15399); assay: [3H]MK-801 binding in NMDAR2D expressing HEK cell membranes; format: biochemical; parameters: key to B: log EC50: 0=−; ≥1×10^−9 M (e.g., −8)=+; <1×10^−9 M (e.g., −10)=++; details: for A: % maximal [3H]MK-801 binding relative to 1 mM glycine: c3, taken as NMDAR2D
T3 construct: expressed in transfected cells; host or cells: HEK cells (membrane extract)
T3 sequence (O15399 28-1336, species assumed, other chains not shown): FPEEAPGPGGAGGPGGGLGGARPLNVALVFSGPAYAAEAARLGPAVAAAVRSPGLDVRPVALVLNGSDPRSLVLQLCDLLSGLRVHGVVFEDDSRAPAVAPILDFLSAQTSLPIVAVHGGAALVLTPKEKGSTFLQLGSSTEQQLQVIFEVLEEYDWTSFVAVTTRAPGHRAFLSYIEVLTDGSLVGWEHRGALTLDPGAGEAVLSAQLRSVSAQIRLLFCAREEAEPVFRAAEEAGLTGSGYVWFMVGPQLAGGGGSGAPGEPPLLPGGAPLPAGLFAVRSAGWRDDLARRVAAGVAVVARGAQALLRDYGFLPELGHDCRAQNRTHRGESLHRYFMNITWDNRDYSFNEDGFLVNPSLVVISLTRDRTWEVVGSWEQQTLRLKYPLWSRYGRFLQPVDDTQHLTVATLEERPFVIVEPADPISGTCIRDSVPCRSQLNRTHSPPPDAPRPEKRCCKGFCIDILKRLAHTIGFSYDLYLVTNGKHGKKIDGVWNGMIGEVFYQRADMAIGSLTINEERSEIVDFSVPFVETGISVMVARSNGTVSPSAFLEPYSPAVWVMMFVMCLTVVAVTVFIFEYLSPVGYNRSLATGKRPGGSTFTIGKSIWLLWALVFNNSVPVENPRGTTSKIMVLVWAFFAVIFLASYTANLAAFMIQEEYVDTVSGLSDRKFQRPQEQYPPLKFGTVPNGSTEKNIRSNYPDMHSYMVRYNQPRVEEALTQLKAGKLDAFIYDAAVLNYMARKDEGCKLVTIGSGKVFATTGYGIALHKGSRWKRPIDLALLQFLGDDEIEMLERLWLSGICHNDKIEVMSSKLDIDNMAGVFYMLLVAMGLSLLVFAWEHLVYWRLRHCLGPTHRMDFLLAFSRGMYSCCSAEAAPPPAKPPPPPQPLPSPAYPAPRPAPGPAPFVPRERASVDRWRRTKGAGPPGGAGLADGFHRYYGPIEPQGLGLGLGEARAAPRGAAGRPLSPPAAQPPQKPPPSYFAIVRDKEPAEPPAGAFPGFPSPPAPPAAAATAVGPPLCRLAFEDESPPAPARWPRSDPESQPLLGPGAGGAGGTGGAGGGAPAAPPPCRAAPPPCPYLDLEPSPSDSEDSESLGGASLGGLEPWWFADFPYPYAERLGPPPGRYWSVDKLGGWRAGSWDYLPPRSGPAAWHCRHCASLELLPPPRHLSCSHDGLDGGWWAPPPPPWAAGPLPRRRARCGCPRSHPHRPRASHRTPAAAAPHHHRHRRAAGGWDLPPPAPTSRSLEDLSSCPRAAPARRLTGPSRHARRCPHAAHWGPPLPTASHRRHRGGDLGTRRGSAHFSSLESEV
Method: as §1, §2, §3, §4

IV pharmacokinetics = format: in vivo; details: Sprague Dawley rats; for C0: normal saline (first four compounds: 5% NMP, 5% Solutol HS, 90% normal saline)
Method: Sprague Dawley rats were dosed intravenously using a normal saline formulation containing 2 mg/kg of the compounds identified in the below table (except for the first four compounds that were delivered in 5% NMP, 5% Solutol® HS and 90% normal saline formulation). The table below summarizes the results of the IV pharmacokinetics.

Sprague Dawley rats = assay: Porsolt forced swim test; format: in vivo; details: 0.1 mg/kg; for % reduction in float time: relative to vehicle group
Method: A non-clinical in vivo pharmacology study (Porsolt assay) was performed to measure antidepressant-like effects. A negative control (0.5% sodium carboxymethyl cellulose in 0.9% sterile saline vehicle) and a positive control (fluoxetine) are shown for comparison against test compound. The study allowed for the evaluation of the effects of each compound on the Porsolt forced swim test as assessed by the rats' response (reduced floating time) during a 5-minute swimming test.
Male 2-3 month old Sprague Dawley rats were used (Harlan, Indianapolis, Ind.). Rats were housed in Lucite cages with aspen wood chip bedding, maintained on a 12:12 light:dark cycle (lights on at 5 AM), and given ad libitum access to Purina lab chow (USA) and tap water throughout the study.
The Porsolt forced swim test adapted for use in rats was performed as described by Burgdorf et al., (The long-lasting antidepressant effects of rapastinel (GLYX-13) are associated with a metaplasticity process in the medial prefrontal cortex and hippocampus. Neuroscience 308:202-211, 2015). Animals were placed in a 46 cm tall×20 cm in diameter clear glass tube filled to 30 cm with tap water (23±1° C.) for 15 min on the first day (habituation) and 5 min on the subsequent test day. Positive control fluoxetine was dosed 3 times (24 h, 5 h and 1 h) prior to testing. Animals were tested 1 h or 24 h post-dosing with the test compounds or vehicle. Animals received a 15 min habituation session 1 day before the 5 min test. A subset of compounds tested at 1 h post-dosing were retested at 1 wk post-dosing in the same sets of animals. Water was changed after every other animal. Animals were videotaped, and floating time as defined as the minimal amount of effort required to keep the animals head above water was scored offline by a blinded experimenter with high inter-rater reliability (Pearson's r>0.9).
Each compound tested at dose level shown. Significance vs. vehicle group for each experiment is marked. […] A compound marked “No” was not statistically significant from vehicle. Data was averaged for test compound and vehicle groups (N approximately 8 per group) and the percent reduction in floating for group treated with test compound relative to group treated with vehicle is shown.

[2] = Sprague Dawley, rat, plasma, po, 10 mg/kg, read-out: Tmax
[3] = Sprague Dawley, rat, plasma, po, 10 mg/kg, plasma, read-out: Cmax
[4] = Sprague Dawley, rat, in vivo, iv, 2 mg/kg
[5] = Sprague Dawley, rat, plasma, po, 10 mg/kg

## O=C1NCCC12CCCN2 (single isomer, unassigned) [RW-1, 1,7-diazaspiro[4.4]nonan-6-one]
rats; dose 0.1 mg/kg
  Max Effect (mean number of 50 kHz USVs per 15 seconds): ** (**: 7.7-10)
NMDAR2A
  Emax: < 100%
  EC50: ≥ 1 nM
NMDAR2B
  Emax: < 100%
  EC50: < 1 nM
[1]
  CSF Cmax: 853 ng/mL
[1]; [2]
  Tmax: 1 h
[1]; [3]
  Cmax: 4070 ng/mL

## O=C1NCCC12CCCNC2 (stereo not drawn) [RB-1, 2,7-diazaspiro[4.5]decan-1-one]
rats; dose .001-1 mg/kg
  Max Effect (mean number of 50 kHz USVs per 15 seconds): *** (***:10.1-20)
NMDAR2A
  Emax: < 100%
  EC50: < 1 nM
NMDAR2B
  B: log EC50: −
  Emax: > 100%
NMDAR2D; second part of table (r25-r35)
  A: % maximal [3H]MK-801 binding relative to 1 mM glycine: + (<100%=+)
IV pharmacokinetics; intravenous 2 mg/kg
  T1/2: 3.35 h
IV pharmacokinetics; [4]
  AUC(0-t): 1260 ng·h/mL
  clearance: 25.8 mL/min/kg
IV pharmacokinetics; Sprague Dawley, rat, in vivo, iv, 2 mg/kg, read-out: C0
  C0: 2070 ng/mL
IV pharmacokinetics; Sprague Dawley, rat, in vivo, iv, 2 mg/kg, read-out: Vss
  Vd: 2.79 L/kg
[1]
  CSF Cmax: 27.4 ng/mL
  Brain Cmax: 40.2 ng/mL
[1]; [5]
  AUC(0-t): 3290 ng·h/mL
  bioavailability: 52%
[1]; [2]
  Tmax: 1.17 h
[1]; [3]
  Cmax: 825 ng/mL

## CC(C)(C)OC(=O)N1CCCC12CCNC2=O (single isomer, unassigned) [RT-1, tert-butyl 6-oxo-1,7-diazaspiro[4.4]nonane-1-carboxylate]
rats; dose 0.1 mg/kg
  Max Effect (mean number of 50 kHz USVs per 15 seconds): ** (**: 7.7-10)
NMDAR2A
  Emax: < 100%
  EC50: < 1 nM
NMDAR2B
  Emax: < 100%
  EC50: < 1 nM

## O=C1NCCC12CCCCN2 (stereo not drawn) [RG-602]
NMDAR2A
  A: % maximal [3H]MK-801 binding relative to 1 mM glycine: + (<100%=+)
  EC50: < 1 nM
NMDAR2B
  A: % maximal [3H]MK-801 binding relative to 1 mM glycine: + (<100%=+)
  EC50: < 1 nM
NMDAR2D; second part of table (r25-r35)
  A: % maximal [3H]MK-801 binding relative to 1 mM glycine: + (<100%=+)
NMDAR2D; second part of table (r25-r35), c4, taken as NMDAR2D, read-out: B: log EC50 (converted)
  EC50: < 1 nM
Sprague Dawley rats; 1 wk post-dose
  Significance vs. vehicle: Yes (statistically significant (p<=0.05) from vehicle at dose level shown)
  % reduction in float time: 55.5%
Sprague Dawley rats; 1 h post-dose, floating time in 5 min test
  Significance vs. vehicle: Yes (statistically significant (p<=0.05) from vehicle at dose level shown)
Sprague Dawley rats; 1 h post-dose
  % reduction in float time: 71.1%

## O=C1NCCC12CCCNC2 (stereo not drawn) [RC-1, 2,7-diazaspiro[4.5]decan-1-one]
rats; dose .001-1 mg/kg
  Max Effect (mean number of 50 kHz USVs per 15 seconds): *** (***:10.1-20)
NMDAR2A
  A: % maximal [3H]MK-801 binding relative to 1 mM glycine: + (<100%=+)
  EC50: < 1 nM
NMDAR2B
  A: % maximal [3H]MK-801 binding relative to 1 mM glycine: ++ (>100%=++)
  EC50: < 1 nM
NMDAR2D; second part of table, c4, taken as NMDAR2D
  B: log EC50: −
IV pharmacokinetics; intravenous 2 mg/kg
  AUClast: 1511.4 ng·h/mL
  Cl: 21.81 mL/min/kg
  T1/2: 1.36 h
  Vss: 1.84 L/kg
  C0: 2013.4 ng/mL
[1]
  % F: 49%
  AUClast: 3668.7 ng·h/mL
  CSF Cmax: 20.8 ng/mL
  Brain Cmax: 27.6 ng/mL
  Tmax: 1.67 h
[1]; plasma
  Cmax: 990.2 ng/mL

— US11530223B2, “Spiro-lactam NMDA receptor modulators and uses thereof” (Aptinyx Inc., priority 2016, dated 2022)
